Measurements published in PubChem BioAssay AID1963836 (Molecular Pharmacology Branch, DTP, NCI, 2024).

Test system: 857933-349-R-J2-PDC complex spheroid viability
Assay: Anticancer human tumor 857933-349-R-J2-PDC patient-derived colon adenocarcinoma cell line growth inhibition [POLQ]
Details: for IC50: curve of first compound; for viability, T/C: stronger effect = lower value
Description: Multicellular complex tumor spheroid response to Polymerase (POL) inhibitors (novobiocin, ART-558, RP6685) in combination with a variety of drugs and investigational agents in selected tumor cell lines
The POL inhibitors (novobiocin, ART-558, and RP6685) were evaluated both individually and in combination with standard of care and investigational anticancer small molecules within a complex spheroid model of solid tumors. . Complex spheroids include a stromal component modeled by human endothelial cells (HUVEC) and fibroblasts modeled by human mesenchymal stem cells (MSCs). The concentration ranges selected for each drug and investigational agent were based upon clinically achievable concentrations if the clinical Cmax of the agent was known.
Compounds. The drugs and investigational agents: novobiocin (NSC847541), ART-558 (NSC835418), RP-6685 (NSC848927), peposertib (NSC802822), ceralasertib (NSC780249), elimusertib (NSC800525), camonsertib (NSC841442), AZD-1390 (NSC803789), olaparib (NSC753686), talazoparib (NSC767125), rucaparib (NSC756644), sotorasib (NSC818433), MRTX-1133 (NSC836407), SN-38 (NSC673596), topotecan (NSC609699), epotoside (NSC141540), doxorubicin (NSC123127), gemcitabine (NSC613327), 5-fluorouracil (NSC19893), paclitaxel (NSC125973), vemurafenib (NSC761431), MSA-2 (NSC828583), SN-011 (NSC837082), adavosertib (NSC754352), prexasertib (NSC758257), carboplatin (NSC241240) and oxaliplatin (NSC266046), were obtained from the National Cancer Institute (NCI) Developmental Therapeutics Program Chemical Repository (21). The FDA-approved anticancer drug set is available from the Developmental Therapeutics Program at https://dtp.cancer.gov/organization/dscb/obtaining/. […] The stock solutions were prepared in dimethyl sulfoxide (DMSO, Sigma-Aldrich, St. Louis, MO, cat. D2650), except for the platinum compounds which were prepared in saline (Quality Biological, Gaithersburg, MD, cat. 114-055-101), at 800-fold the tested concentration and stored at -70 degrees C prior to their use. All drugs and investigational agents were tested over a range starting from a high concentration at or near the clinical Cmax and decreasing in half-log increments. If the clinical Cmax for an agent had not been determined, the highest concentration tested was 10 microM, except for SN-38, which was tested at a high concentration of 1 microM.
Cell Culture. All cells were maintained in an incubator at 37 degrees C and 5% CO2 with 95% humidity. The PDC lines were cultured according to standard operating procedures established by the NCI PDMR (https://pdmr.cancer.gov). Table 3 of the manuscript, lists the cell lines along with the number of the three cell types plated to form the mct-spheroids and media for tumor cell growth. After thawing, all PDC lines, except 997537-175-T-J1-PDC and 415267-285-R-J2-PDC, were cultured in Matrigel-coated flasks prepared with a working solution of 1X Ham's F-12 nutrient mix, without supplementation (Thermo Fisher Scientific, cat. 11765054), 100 U/mL penicillin-streptomycin (Thermo Fisher Scientific, cat. 15140122), and 2.5% Matrigel (Corning Inc., Corning, NY, cat. 354248) for the first three passages. The two PDC lines 997537-175-T-J1-PDC and 415267-285-R-J2-PDC were cultured on uncoated flasks. The 857933-349-R-J2-PDC line was cultured in 6C/Colon 1B media containing advanced DMEM/F-12 (Thermo Fisher Scientific, cat. 12634028), 10 mM HEPES (Thermo Fisher Scientific, cat. 15630080), 1X GlutaMAX supplement (Thermo Fisher Scientific, cat. 35050061), 0.1 mg/mL primocin (InvivoGen, San Diego, CA, cat. ant-pm-2), 10% defined fetal bovine serum, heat inactivated (HyClone Laboratories Inc., Logan, UT, cat. SH30070.03HI), 50% L-WRN conditioned media (ATCC, cat. CRL-3276), 1.25 mM N-Acetyl-L-cysteine (Sigma-Aldrich, cat. A9165), 10 mM nicotinamide (Sigma-Aldrich, cat. N0636), 1X B-27 supplement (Thermo Fisher Scientific, cat. 17504044), 1X N-2 supplement (Thermo Fisher Scientific, cat. […]

[1] = second compound 0.0316 µM, first compound 0.00316 µM
[2] = second compound 0.0316 µM, first compound 0.01 µM
[3] = second compound 0.0316 µM, first compound 0.0316 µM
[4] = second compound 0.0316 µM, first compound 0.1 µM
[5] = second compound 0.1 µM, first compound 0.00316 µM
[6] = second compound 0.1 µM, first compound 0.01 µM
[7] = second compound 0.1 µM, first compound 0.0316 µM
[8] = second compound 0.1 µM, first compound 0.1 µM
[9] = second compound 0.316 µM, first compound 0.00316 µM
[10] = second compound 0.316 µM, first compound 0.01 µM
[11] = second compound 0.316 µM, first compound 0.0316 µM
[12] = second compound 0.316 µM, first compound 0.1 µM
[13] = second compound 1 µM, first compound 0.00316 µM
[14] = second compound 1 µM, first compound 0.01 µM
[15] = second compound 1 µM, first compound 0.0316 µM
[16] = second compound 1 µM, first compound 0.1 µM
[17] = second compound 3.16 µM, first compound 0.00316 µM
[18] = second compound 3.16 µM, first compound 0.01 µM
[19] = second compound 3.16 µM, first compound 0.0316 µM
[20] = second compound 3.16 µM, first compound 0.1 µM
[21] = second compound 10 µM, first compound 0.00316 µM
[22] = second compound 10 µM, first compound 0.01 µM
[23] = second compound 10 µM, first compound 0.0316 µM
[24] = second compound 10 µM, first compound 0.1 µM
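Note: spheroids exposed to compounds for seven days before readout.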

In the case of `COc1cccc(OCCCN)c1-c1cc(Nc2cnc(C#N)cn2)n[nH]1` + COC1C(OC(N)=O)C(O)C(Oc2ccc3c(O)c(NC(=O)c4ccc(O)c(CC=C(C)C)c4)c(=O)oc3c2C)OC1(C)C, the IC50 (second compound 0.0316 µM) is reported as 89.5 nM, the IC50 (second compound 0.1 µM) is reported as 66.9 nM and the IC50 (second compound 0.316 µM) is reported as 155 nM. For the same compound, the IC50 (second compound 1 µM) was 86.9 nM, the IC50 (second compound 3.16 µM) was 204 nM and the IC50 (second compound 10 µM) was 170 nM. It also gave a viability, T/C [1] of 102%, a viability, T/C [2] of 75.5% and a viability, T/C [3] of 61.3%. It also gave a viability, T/C [4] of 48.8%, a viability, T/C (second compound 0.0316 µM, first compound 0.316 µM) of 44.1% and a viability, T/C (second compound 0.0316 µM, first compound 1 µM) of 29.9%. It also gave a viability, T/C [5] of 79.5%, a viability, T/C [6] of 113% and a viability, T/C [7] of 58.8%. It also gave a viability, T/C [8] of 51.5%, a viability, T/C (second compound 0.1 µM, first compound 0.316 µM) of 48.9% and a viability, T/C (second compound 0.1 µM, first compound 1 µM) of 35.4%. The viability, T/C [9] was 85.2%, the viability, T/C [10] was 86.1% and the viability, T/C [11] was 62.6%. The viability, T/C [12] was 53.2%, the viability, T/C (second compound 0.316 µM, first compound 0.316 µM) was 48.5% and the viability, T/C (second compound 0.316 µM, first compound 1 µM) was 35.4%. The viability, T/C [13] was 95%, the viability, T/C [14] was 84.2% and the viability, T/C [15] was 52.8%. It also gave a viability, T/C [16] of 51.2%, a viability, T/C (second compound 1 µM, first compound 0.316 µM) of 46.5% and a viability, T/C (second compound 1 µM, first compound 1 µM) of 32.2%. For the same compound, the viability, T/C [17] was 93.7%, the viability, T/C [18] was 89.1% and the viability, T/C [19] was 79.5%. It also gave a viability, T/C [20] of 56.2%, a viability, T/C (second compound 3.16 µM, first compound 0.316 µM) of 47.5% and a viability, T/C (second compound 3.16 µM, first compound 1 µM) of 33.6%. It also gave a viability, T/C [21] of 88%, a viability, T/C [22] of 77.7% and a viability, T/C [23] of 70.5%. It also gave a viability, T/C [24] of 54.2%, a viability, T/C (second compound 10 µM, first compound 0.316 µM) of 44% and a viability, T/C (second compound 10 µM, first compound 1 µM) of 31%.
Compound `Cn1ncnc1[C@H]1c2n[nH]c(=O)c3cc(F)cc(c23)N[C@@H]1c1ccc(F)cc1` + COC1C(OC(N)=O)C(O)C(Oc2ccc3c(O)c(NC(=O)c4ccc(O)c(CC=C(C)C)c4)c(=O)oc3c2C)OC1(C)C has an IC50 (second compound 0.0316 µM) of over 100 nM, an IC50 (second compound 0.1 µM) of over 100 nM and an IC50 (second compound 0.316 µM) of over 100 nM. The IC50 (second compound 1 µM) was over 100 nM, the IC50 (second compound 3.16 µM) was over 100 nM and the IC50 (second compound 10 µM) was over 100 nM. The viability, T/C (second compound 0.0316 µM, first compound 0.000316 µM) was 76.1%, the viability, T/C (second compound 0.0316 µM, first compound 0.001 µM) was 95.3% and the viability, T/C [1] was 77.6%. The viability, T/C [2] was 92.6%, the viability, T/C [3] was 90.5% and the viability, T/C [4] was 100%. For the same compound, the viability, T/C (second compound 0.1 µM, first compound 0.000316 µM) was 106%, the viability, T/C (second compound 0.1 µM, first compound 0.001 µM) was 88.8% and the viability, T/C [5] was 102%. For the same compound, the viability, T/C [6] was 96.2%, the viability, T/C [7] was 96% and the viability, T/C [8] was 84.7%. It also gave a viability, T/C (second compound 0.316 µM, first compound 0.000316 µM) of 89.2%, a viability, T/C (second compound 0.316 µM, first compound 0.001 µM) of 98.7% and a viability, T/C [9] of 98.9%. The viability, T/C [10] was 77.8%, the viability, T/C [11] was 93.1% and the viability, T/C [12] was 88.4%. It also gave a viability, T/C (second compound 1 µM, first compound 0.000316 µM) of 75.9%, a viability, T/C (second compound 1 µM, first compound 0.001 µM) of 93.4% and a viability, T/C [13] of 76.4%. It also gave a viability, T/C [14] of 77.8%, a viability, T/C [15] of 97.7% and a viability, T/C [16] of 107%. For the same compound, the viability, T/C (second compound 3.16 µM, first compound 0.000316 µM) was 78.6%, the viability, T/C (second compound 3.16 µM, first compound 0.001 µM) was 100% and the viability, T/C [17] was 95.3%. The viability, T/C [18] was 92.8%, the viability, T/C [19] was 87.8% and the viability, T/C [20] was 77.7%. The viability, T/C (second compound 10 µM, first compound 0.000316 µM) was 60.5%, the viability, T/C (second compound 10 µM, first compound 0.001 µM) was 94.8% and the viability, T/C [21] was 101%. It also gave a viability, T/C [22] of 76.2%, a viability, T/C [23] of 94% and a viability, T/C [24] of 103%.
